The values below come from patent US9708368B2, “Linear peptide antibiotics” (priority 2012, dated 2017).

SMILES strings stand for the structures. Converted amounts (≈) assume the structure as drawn. Square brackets hold non-standard residues; d marks the D form. Peptide text beside a SMILES is read from it. * marks the point of attachment. X7 = CC1(C)[C@@H]2C[C@H]3OB([C@@H]4CCCN4*)O[C@@]3(C)[C@H]1C2; Biphenylcarbonyl(4'-Bu) = CCCCc1ccc(-c2ccc(C(=O)*)cc2)cc1; X11 = CC[C@H](N*)B1OC2C[C@@H]3C[C@@H](C3(C)C)[C@]2(C)O1; X1 = C[C@H](N*)B1OC2C[C@@H]3C[C@@H](C3(C)C)[C@]2(C)O1; Benzoyl(4-(4-Cl-Ph)) = O=C(c1ccc(-c2ccc(Cl)cc2)cc1)*; Pro(4S-NH2) = N[C@@H]1CN[C@H](C(=O)O)C1; Hpg = N[C@H](C(=O)O)c1ccc(O)cc1; Tle = CC(C)(C)[C@H](N)C(=O)O; Lauroyl = CCCCCCCCCCCC(=O)*; boroAla = C[C@H](N*)B(O)O; Abu = CC[C@H](N)C(=O)O; βAla = NCCC(=O)O Where only a bound is given, the exact number is not on record here.

In test [1] the test system is Escherichia coli strain MC4100 IMP-4213, which harbors an LptD mutation. As to conditions: Method B; E. coli MC4100 IMP-4213 (LptD mutation); 35° C., 22 hours. In a few lines: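 Two-fold serial dilutions of compound inoculated at final OD600 0.0005, incubated static at 35 °C for 22 h, and growth read visually.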
Test [2] relates to methicillin resistant Staphylococcus aureus (MRSA) strain USA300 (NRS384). As to conditions: Method B, 35° C., 22 hours.
The target of the next test is S. aureus SPase (Staphylococcus aureus, UniProt P0A070). Nature of the test: biochemical.
In a further test the target is E. coli SPase (Escherichia coli, UniProt P00803). Nature of the test: Biochemical SPase activity assay (fluorogenic peptide substrate), E. coli enzyme.

Broadly, the IC50 is the concentration that inhibits the measured activity by half. In the case of `CCCCc1ccc(-c2ccc(C(=O)NCCC(=O)N[C@@H](CCCCN)C(=O)N[C@H](C(=O)N[C@@H](C)C(=O)N[C@@H](CC(N)=O)C(=O)N3CCC[C@H]3B3O[C@@H]4C[C@@H]5C[C@@H](C5(C)C)[C@]4(C)O3)[C@@H](C)O)cc2)cc1` [Compound 200] ({Biphenylcarbonyl(4'-Bu)-βAla}-KTAN-X7), the “MIC (μg/mL) E. coli” value in test [1] is 64 µg/mL (≈ 65.9 µM). Also, the “MIC (μg/mL) S. aureus” value in test [2] is over 64 µg/mL. For the same compound, the IC50 on S. aureus SPase was 1200 nM; on E. coli SPase, 5200 nM.

Turning to `C[C@H](NC(=O)[C@H](CC(N)=O)NC(=O)[C@H](C)NC(=O)[C@@H](NC(=O)[C@H](CCCCN)NC(=O)CCNC(=O)c1ccc(-c2ccc(Cl)cc2)cc1)[C@@H](C)O)B1OC2C[C@@H]3C[C@@H](C3(C)C)[C@]2(C)O1` (some centres unmarked) [Compound 201] ({Benzoyl(4-(4-Cl-Ph))-βAla}-KTAN-X1), in test [1], the “MIC (μg/mL) E. coli” value was 64 µg/mL (≈ 69.3 µM). The “MIC (μg/mL) S. aureus” value in test [2] came to 4.6 µg/mL (≈ 4.98 µM). Besides, the IC50 against S. aureus SPase is 1.9 nM; against E. coli SPase, 8 nM.

Consider `CCCCCCCCCCCC(=O)NCCC(=O)N[C@@H](CCCCN)C(=O)N[C@H](C(=O)N[C@@H](C)C(=O)N[C@@H](CC(N)=O)C(=O)N[C@@H](C)B1OC2C[C@@H]3C[C@@H](C3(C)C)[C@]2(C)O1)[C@@H](C)O` (some centres unmarked) [Compound 202] ({Lauroyl-βAla}-KTAN-X1), for which, in test [1], the “MIC (μg/mL) E. coli” value turned out to be 23 µg/mL (≈ 25.8 µM). Moreover, the “MIC (μg/mL) S. aureus” value in test [2] was determined as 1.1 µg/mL (≈ 1.23 µM). In addition, the IC50 against S. aureus SPase came to 3.5 nM; against E. coli SPase, 7.1 nM.

In the case of `CCCCc1ccc(-c2ccc(C(=O)NCCC(=O)N[C@@H](CCCCN)C(=O)N[C@H](C(=O)N[C@@H](C)C(=O)N[C@@H](CC(N)=O)C(=O)N[C@@H](CC)B3OC4C[C@@H]5C[C@@H](C5(C)C)[C@]4(C)O3)[C@@H](C)O)cc2)cc1` (some centres unmarked) [Compound 203] ({Biphenylcarbonyl(4'-Bu)-βAla}-KTAN-X11), the “MIC (μg/mL) E. coli” value in test [1] came to 32 µg/mL (≈ 33.4 µM). Further, the “MIC (μg/mL) S. aureus” value in test [2] amounted to 1.4 µg/mL (≈ 1.46 µM). The IC50 was found to be 21 nM at S. aureus SPase and 130 nM against E. coli SPase.

Take `CCCCc1ccc(-c2ccc(C(=O)NCCC(=O)N[C@@H](CCCCN)C(=O)N[C@H](C(=O)N[C@@H](C)C(=O)N[C@@H](CC(N)=O)C(=O)N[C@@H](C)B(O)O)[C@@H](C)O)cc2)cc1` [Compound 204] ({Biphenylcarbonyl(4'-Bu)-βAla}-KTAN-boroAla): in test [1], the “MIC (μg/mL) E. coli” value amounted to 4.6 µg/mL (≈ 5.67 µM). Further, the “MIC (μg/mL) S. aureus” value in test [2] stood at 0.45 µg/mL (≈ 0.555 µM). Further, the IC50 against S. aureus SPase worked out at 13 nM; against E. coli SPase, 33 nM.

Take `CCCCc1ccc(-c2ccc(C(=O)NCCC(=O)N[C@@H](CCCCN)C(=O)N[C@H](C(=O)N[C@@H](CC)C(=O)N[C@@H](CC(N)=O)C(=O)N[C@@H](CC)B3OC4C[C@@H]5C[C@@H](C5(C)C)[C@]4(C)O3)[C@@H](C)O)cc2)cc1` (some centres unmarked) [Compound 205] ({Biphenylcarbonyl(4'-Bu)-βAla}-KT[Abu]N-X11): the “MIC (μg/mL) E. coli” value in test [1] came to 32 µg/mL (≈ 32.9 µM). Further, the “MIC (μg/mL) S. aureus” value in test [2] is 2 µg/mL (≈ 2.06 µM). For the same compound, the IC50 at S. aureus SPase stood at 20 nM; against E. coli SPase it was 210 nM.

As for `CCCCc1ccc(-c2ccc(C(=O)NCCC(=O)N[C@@H](CCCCN)C(=O)N[C@H](C(=O)N[C@@H](CC)C(=O)N[C@@H](CC(N)=O)C(=O)N[C@@H](C)B3OC4C[C@@H]5C[C@@H](C5(C)C)[C@]4(C)O3)[C@@H](C)O)cc2)cc1` (some centres unmarked) [Compound 206] ({Biphenylcarbonyl(4'-Bu)-βAla}-KT[Abu]N-X1), the “MIC (μg/mL) E. coli” value in test [1] was 2 µg/mL (≈ 2.09 µM). Further, the “MIC (μg/mL) S. aureus” value in test [2] amounted to 0.5 µg/mL (≈ 0.521 µM). Also, the IC50 on S. aureus SPase amounted to 5.2 nM; against E. coli SPase it was 6.3 nM.

Take `CCCCc1ccc(-c2ccc(C(=O)NCCC(=O)N[C@@H](CCCCN)C(=O)N[C@@H](CCCCN)C(=O)N[C@@H](C)C(=O)N[C@@H](CCCCN)C(=O)N[C@@H](C)B3OC4C[C@@H]5C[C@@H](C5(C)C)[C@]4(C)O3)cc2)cc1` (some centres unmarked) [Compound 207] ({Biphenylcarbonyl(4'-Bu)-βAla}-KKAK-X1): the “MIC (μg/mL) E. coli” value in test [1] amounted to 2 µg/mL (≈ 2.03 µM). For the same compound, the “MIC (μg/mL) S. aureus” value in test [2] came out at 0.099 µg/mL (≈ 0.1 µM). The results for the IC50 at S. aureus SPase and against E. coli SPase were 13 nM and 87 nM, respectively.

As for `CCCCc1ccc(-c2ccc(C(=O)NCCC(=O)N[C@@H](CCCCN)C(=O)N3CCC[C@H]3C(=O)N[C@@H](C)C(=O)N[C@@H](CC(N)=O)C(=O)N[C@@H](C)B3OC4C[C@@H]5C[C@@H](C5(C)C)[C@]4(C)O3)cc2)cc1` (some centres unmarked) [Compound 208] ({Biphenylcarbonyl(4'-Bu)-βAla}-KPAN-X1), the “MIC (μg/mL) E. coli” value in test [1] turned out to be 4 µg/mL (≈ 4.25 µM). Moreover, in test [2], the “MIC (μg/mL) S. aureus” value is 0.31 µg/mL (≈ 0.329 µM). The half-maximal inhibitory concentration (IC50) was determined as 5.7 nM at S. aureus SPase and 20 nM on E. coli SPase.

In the case of `CCCCc1ccc(-c2ccc(C(=O)NCCC(=O)N[C@@H](CCCCN)C(=O)N[C@H](C(=O)N[C@@H](C)C(=O)N[C@@H](CC(N)=O)C(=O)N[C@@H](C)B3OC4C[C@@H]5C[C@@H](C5(C)C)[C@]4(C)O3)c3ccc(O)cc3)cc2)cc1` (some centres unmarked) [Compound 209] ({Biphenylcarbonyl(4'-Bu)-βAla}-K[Hpg]AN-X1), in test [1], the “MIC (μg/mL) E. coli” value amounted to 2.5 µg/mL (≈ 2.52 µM). In addition, in test [2], the “MIC (μg/mL) S. aureus” value worked out at 1 µg/mL (≈ 1.01 µM). Further, the values for the half-inhibitory concentration (IC50) at S. aureus SPase and at E. coli SPase were 15 nM and 12 nM, respectively.

`CCCCc1ccc(-c2ccc(C(=O)NCCC(=O)N[C@@H](CCCCN)C(=O)N[C@H](C(=O)N[C@@H](C)C(=O)N[C@@H](CC(N)=O)C(=O)N[C@@H](C)B3OC4C[C@@H]5C[C@@H](C5(C)C)[C@]4(C)O3)C(C)(C)C)cc2)cc1` (some centres unmarked) [Compound 210] ({Biphenylcarbonyl(4'-Bu)-βAla}-K[Tle]AN-X1): in test [1], the “MIC (μg/mL) E. coli” value was determined as 4 µg/mL (≈ 4.18 µM). The “MIC (μg/mL) S. aureus” value in test [2] worked out at 0.71 µg/mL (≈ 0.742 µM). Besides, the IC50 on S. aureus SPase came to 16 nM; on E. coli SPase it was 56 nM.

Take `CCCCc1ccc(-c2ccc(C(=O)NCCC(=O)N[C@@H](CCCCN)C(=O)N[C@H](C(=O)N[C@H](C(=O)N[C@@H](CC(N)=O)C(=O)N[C@@H](C)B3OC4C[C@@H]5C[C@@H](C5(C)C)[C@]4(C)O3)C(C)C)[C@@H](C)O)cc2)cc1` (some centres unmarked) [Compound 212] ({Biphenylcarbonyl(4'-Bu)-βAla}-KTVN-X1): the “MIC (μg/mL) E. coli” value in test [1] worked out at 5 µg/mL (≈ 5.14 µM). The “MIC (μg/mL) S. aureus” value in test [2] worked out at 0.84 µg/mL (≈ 0.863 µM). For the same compound, the 50% inhibitory concentration (IC50) stood at 12 nM against S. aureus SPase and 26 nM at E. coli SPase.

`CCCCc1ccc(-c2ccc(C(=O)NCCC(=O)N3C[C@@H](N)C[C@H]3C(=O)N[C@H](C(=O)N[C@@H](C)C(=O)N[C@@H](CC(N)=O)C(=O)N[C@@H](C)B3OC4C[C@@H]5C[C@@H](C5(C)C)[C@]4(C)O3)[C@@H](C)O)cc2)cc1` (stereo partly drawn) [Compound 213] ({Biphenylcarbonyl(4'-Bu)-βAla}-[Pro(4S-NH2)]TAN-X1): in test [1], the “MIC (μg/mL) E. coli” value amounted to 1.3 µg/mL (≈ 1.4 µM). Further, in test [2], the “MIC (μg/mL) S. aureus” value was 0.22 µg/mL (≈ 0.237 µM). Besides, the IC50 against S. aureus SPase was determined as 7.7 nM; against E. coli SPase it was 6.8 nM.

For `CCCCc1ccc(-c2ccc(C(=O)NCCC(=O)N[C@@H](CCCCN)C(=O)N3CCC[C@H]3C(=O)N[C@@H](C)C(=O)N[C@@H](CCCCN)C(=O)N[C@@H](C)B3OC4C[C@@H]5C[C@@H](C5(C)C)[C@]4(C)O3)cc2)cc1` (some centres unmarked) [Compound 214] ({Biphenylcarbonyl(4'-Bu)-βAla}-KPAK-X1), the “MIC (μg/mL) E. coli” value in test [1] was found to be 5.7 µg/mL (≈ 5.97 µM). The “MIC (μg/mL) S. aureus” value in test [2] was 0.35 µg/mL (≈ 0.366 µM). The IC50 against S. aureus SPase is 17 nM; at E. coli SPase, 77 nM.
